Read-outs that look alike come from different tables or passages of the source.
Legend:
[1] = test system: 134 cancer cell lines; experiment: Cell viability assay (ATPlite, 72 hours), IC50 on cancer cell line panel
[2] = molecular target: panel of 255 wild-type kinases (Homo sapiens, UniProt Q9UBS0); conditions: p70S6Kβ; 1 µmol/L single concentration; ref DOI: 10.1371/journal.pone.0092146; cited from earlier work
[3] = molecular target: T1, panel of 255 wild-type kinases (Homo sapiens, UniProt O15264); conditions: p38δ; 1 µmol/L single concentration; ref DOI: 10.1371/journal.pone.0092146; cited from earlier work
T1 sequence (O15264 1-365): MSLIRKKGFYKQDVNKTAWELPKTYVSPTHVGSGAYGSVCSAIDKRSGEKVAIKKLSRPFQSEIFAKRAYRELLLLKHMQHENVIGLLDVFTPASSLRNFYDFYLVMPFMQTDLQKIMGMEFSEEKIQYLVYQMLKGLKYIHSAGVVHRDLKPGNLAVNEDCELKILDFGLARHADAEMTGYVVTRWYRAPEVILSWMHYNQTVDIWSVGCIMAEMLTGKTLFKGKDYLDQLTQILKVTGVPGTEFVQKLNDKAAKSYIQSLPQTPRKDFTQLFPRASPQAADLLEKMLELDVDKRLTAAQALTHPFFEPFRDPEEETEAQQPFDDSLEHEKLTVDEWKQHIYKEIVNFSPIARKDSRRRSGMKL

[4] = molecular target: panel of 255 wild-type kinases (Homo sapiens, UniProt Q15119); conditions: kinase PDHK2; 1 µmol/L single concentration; ref DOI: 10.1371/journal.pone.0092146; cited from earlier work
[5] = molecular target: panel of 255 wild-type kinases (Homo sapiens, UniProt Q9P286); conditions: PAK5; 1 µmol/L single concentration; ref DOI: 10.1371/journal.pone.0092146; cited from earlier work

Work on `CC(=O)Nc1cccc(-n2c(=O)n(C3CC3)c(=O)c3c(Nc4ccc(I)cc4F)n(C)c(=O)c(C)c32)c1` [trametinib] yielded an IC50 ([1]; Homo sapiens, MeWo, read-out: IC50 in cell proliferation assay, MeWo cell line) of 36 nM, an IC50 ([1]; Homo sapiens, NCCIT, read-out: IC50 in cell proliferation assay, NCC-IT cell line) of 871 nM and an IC50 ([1]; Homo sapiens, NCI-H82, read-out: IC50 in cell proliferation assay, cell line NCI-H82) of over 28200 nM. The IC50 ([1]; Homo sapiens, NCI-H460, read-out: IC50 in cell proliferation assay, NCI-H460 cell line) was 33 nM, the IC50 ([1]; Homo sapiens, NCI-H661, read-out: IC50 in cell proliferation assay, NCI-H661 cell line) was over 28200 nM and the IC50 ([1]; Homo sapiens, NCI-H716, read-out: IC50 in cell proliferation assay, cell line NCI-H716 (FGFR2-COL14A1)) was 34 nM. The IC50 ([1]; Homo sapiens, NCI-H1650, read-out: IC50 in cell proliferation assay, NCI-H1650 cell line (EGFR exon19del)) was 75 nM, the IC50 ([1]; Homo sapiens, NCI-H1975, read-out: IC50 in cell proliferation assay, NCI-H1975 cell line (EGFR p.L858R + p.T790M)) was 85 nM and the IC50 ([1]; Homo sapiens, NCI-H2228, read-out: IC50 in cell proliferation assay, NCI-H2228 cell line (EML4-ALK)) was 265 nM. For the same compound, the IC50 ([1]; Homo sapiens, OVCAR-3, read-out: IC50 in cell proliferation assay, cell line OVCAR-3) was over 28200 nM, the IC50 ([1]; Homo sapiens, PFSK-1, read-out: IC50 in cell proliferation assay, cell line PFSK-1) was over 28200 nM and the IC50 ([1]; Homo sapiens, RL95-2, read-out: IC50 in cell proliferation assay, cell line RL95-2 (EGFR p.A289V)) was 1.55 nM. The IC50 ([1]; Homo sapiens, RPMI-7951, read-out: IC50 in cell proliferation assay, cell line RPMI-7951 (BRAF p.V600E)) was 17 nM, the IC50 ([1]; Homo sapiens, RS4-11, read-out: IC50 in cell proliferation assay, cell line RS4;11) was over 28200 nM and the IC50 ([1]; Homo sapiens, Rec1, read-out: IC50 in cell proliferation assay, cell line REC-1) was 12300 nM. For the same compound, the IC50 ([1]; Homo sapiens, SHP77, read-out: IC50 in cell proliferation assay, cell line SHP-77) was over 28200 nM, the IC50 ([1]; Homo sapiens, SK-BR-3, read-out: IC50 in cell proliferation assay, cell line SK-BR-3 (ERBB2 amplification)) was over 31600 nM and the IC50 ([1]; Homo sapiens, SK-N-AS, read-out: IC50 in cell proliferation assay, cell line SK-N-AS) was 4 nM. The IC50 ([1]; Homo sapiens, SK-N-FI, read-out: IC50 in cell proliferation assay, cell line SK-N-FI) was 34 nM, the IC50 ([1]; Homo sapiens, SK-N-MC, read-out: IC50 in cell proliferation assay, cell line SK-N-MC) was over 31600 nM and the IC50 ([1]; Homo sapiens, SK-N-SH, read-out: IC50 in cell proliferation assay, cell line SK-N-SH (ALK p.F1174L)) was 17 nM. It also gave an IC50 ([1]; Homo sapiens, SNU-5, read-out: IC50 in cell proliferation assay, cell line SNU-5 (MET amplification)) of 12 nM, an IC50 ([1]; Homo sapiens, SNU-16, read-out: IC50 in cell proliferation assay, cell line SNU-16 (FGFR2 amplification)) of 146 nM and an IC50 ([1]; Homo sapiens, SNU-C2B, read-out: IC50 in cell proliferation assay, cell line SNU-C2B (EGFR p.R165Q)) of 41 nM. The IC50 ([1]; Homo sapiens, SU-DHL-1, read-out: IC50 in cell proliferation assay, cell line SU-DHL-1 (NPM1-ALK)) was 279 nM, the IC50 ([1]; Homo sapiens, SU-DHL-6, read-out: IC50 in cell proliferation assay, cell line SU-DHL-6) was 27 nM and the IC50 ([1]; Homo sapiens, SUP-T1, read-out: IC50 in cell proliferation assay, cell line SUP-T1) was over 28200 nM. The IC50 ([1]; Homo sapiens, SW48, read-out: IC50 in cell proliferation assay, cell line SW48 (EGFR p.G719S)) was 6 nM, the IC50 ([1]; Homo sapiens, SW480, read-out: IC50 in cell proliferation assay, cell line SW480) was 230 nM and the IC50 ([1]; Homo sapiens, SW626, read-out: IC50 in cell proliferation assay, cell line SW626) was 59 nM. The IC50 ([1]; Homo sapiens, SW780, read-out: IC50 in cell proliferation assay, cell line SW780 (FGFR3-BAIAP2L1)) was 20 nM, the IC50 ([1]; Homo sapiens, SW837, read-out: IC50 in cell proliferation assay, cell line SW837) was 98 nM and the IC50 ([1]; Homo sapiens, SW872, read-out: IC50 in cell proliferation assay, cell line SW872 (BRAF p.V600E)) was 23 nM. For the same compound, the IC50 ([1]; Homo sapiens, SW900, read-out: IC50 in cell proliferation assay, cell line SW900) was 111 nM, the IC50 ([1]; Homo sapiens, SW948, read-out: IC50 in cell proliferation assay, cell line SW948) was 26 nM and the IC50 ([1]; Homo sapiens, SW982, read-out: IC50 in cell proliferation assay, cell line SW982 (BRAF p.V600E)) was 929 nM. The IC50 ([1]; Homo sapiens, SW-620, read-out: IC50 in cell proliferation assay, cell line SW620) was 17 nM, the IC50 ([1]; Homo sapiens, T98G, read-out: IC50 in cell proliferation assay, cell line T98G) was over 28200 nM and the IC50 ([1]; Homo sapiens, TCC-SUP, read-out: IC50 in cell proliferation assay, cell line TCCSUP) was 1450 nM. For the same compound, the IC50 ([1]; Homo sapiens, THP-1, read-out: IC50 in cell proliferation assay, cell line THP-1) was 1 nM, the IC50 ([1]; Homo sapiens, U2OS, read-out: IC50 in cell proliferation assay, cell line U2OS) was 4 nM and the IC50 ([1]; Homo sapiens, U-87 MG, read-out: IC50 in cell proliferation assay, cell line U-87MG ATCC) was 245 nM. It also gave an IC50 ([1]; Homo sapiens, U-118-MG, read-out: IC50 in cell proliferation assay, cell line U-118MG) of 151 nM, an IC50 ([1]; Homo sapiens, UMUC3, read-out: IC50 in cell proliferation assay, cell line UM-UC-3) of 21 nM and an IC50 ([1]; Hs766T, read-out: IC50 in cell proliferation assay, Hs 766T cell line) of 2.34 nM. It also gave an IC50 ([1]; L-82, read-out: IC50 in cell proliferation assay, L-82 cell line (NPM1-ALK)) of 86 nM, an IC50 ([1]; Rh30, read-out: IC50 in cell proliferation assay, cell line Rh30) of 237 nM and an IC50 ([1]; read-out: IC50 in cell proliferation assay, 11-18 cell line (EGFR p.L858R)) of over 31600 nM. It also gave an IC50 ([1]; read-out: IC50 in cell proliferation assay, Hs 852.T cell line) of 218 nM, an IC50 ([1]; read-out: IC50 in cell proliferation assay, JAR cell line) of over 28200 nM and an IC50 ([1]; read-out: IC50 in cell proliferation assay, cell line 5637) of 297 nM. It also gave an IC50 ([1]; read-out: IC50 in cell proliferation assay, cell line A-388) of 99 nM, an IC50 ([1]; read-out: IC50 in cell proliferation assay, cell line DB) of 18900 nM and an IC50 ([1]; read-out: IC50 in cell proliferation assay, cell line DEL (NPM1-ALK)) of over 31600 nM. It also gave an IC50 ([1]; read-out: IC50 in cell proliferation assay, cell line ES-2 (BRAF p.V600E)) of 7 nM, an IC50 ([1]; read-out: IC50 in cell proliferation assay, cell line PA-1) of 666 nM and an IC50 ([1]; read-out: IC50 in cell proliferation assay, cell line PC-3) of over 28200 nM. The IC50 ([1]; read-out: IC50 in cell proliferation assay, cell line RD) was 4 nM, the IC50 ([1]; read-out: IC50 in cell proliferation assay, cell line RKO (BRAF p.V600E)) was 8 nM and the IC50 ([1]; read-out: IC50 in cell proliferation assay, cell line RL) was over 28200 nM. The IC50 ([1]; read-out: IC50 in cell proliferation assay, cell line RT-4 (FGFR3-TACC3)) was 72 nM, the IC50 ([1]; read-out: IC50 in cell proliferation assay, cell line SR (NPM1-ALK)) was 936 nM and the IC50 ([1]; read-out: IC50 in cell proliferation assay, cell line T24) was 5 nM. The IC50 ([1]; read-out: IC50 in cell proliferation assay, cell line TT (RET p.C634W)) was 1050 nM, the IC50 ([1]; read-out: IC50 in cell proliferation assay, cell line VA-ES-BJ) was 89 nM and the “%-inhibition, p70S6Kβ” value [2] was -1%. The “%-inhibition, p38δ” value [3] was -2.7%, the “%-inhibition at 1 µmol/L, PDHK2” value [4] was -0.542% and the “%-inhibition, PAK5” value [5] was -2.62%.
